Measured values reported in US8779092B2, “Metastasis-specific peptides and their diagnostic and therapeutic applications” (Universita Degli Studi di Torino, priority 2006, dated 2014).

Test system: primary cells of hepatic metastasis
Assay: Binding experiments on primary cells
Parameters: species or system human
Conditions: for binding of phage clone to primary hepatic metastasis cells: compared to normal liver of the same patient; for binding of phage clone to primary hepatic metastasis cells, summary over samples: all tested patient samples
Method: Samples were processed immediately after surgical removal, in order to disaggregate the tissues and extract single cells on which to perform the experiments. All the manipulations were performed under laminar flux in sterility. Samples were chopped with a scalpel in a small volume of PBS. The suspension, collected in PBS, was centrifuged for 3 minutes at 100 rpm at room temperature and the pellet was resuspended in 5 ml of collagenase (0.25% weight/volume in DMEM). The digestion of the tissue fragments was done incubating this suspension for 2 hours at 37° C. while shaking. The sample was again centrifuged, to eliminate all the particulate under the cell size (lipid aggregates, cell portions) or also smaller cells, of hematopoietic origin. Pellet was washed twice in PBS. Cells were filtered on filters with a diameter of 45 μm, counted in Burker chamber and resuspended at a concentration of 10^6/ml in DMEM/FCS/HEPES.
These assays were performed with an Input of 10^9 TU of each clone, on cells from the hepatic metastasis cell line (target) and on cells from normal liver (negative control). The Output of these experiments was normalized on binding to an insertless phage, fd-tet, giving a measure of the unspecific interaction due to the phage itself. The binding increase was evaluated as ratio between normalized Output of the target and normalized Output of the negative control. All the experiments were repeated at least 3 times, when possible for material availability.
To evaluate if the selected inserts were specific for ubiquitous surface determinants in human hepatic metastases, the 7 selected clones were tested on primary cells of hepatic metastasis, comparing to normal liver of the same patients. For these binding assays, samples from 9 patients were used (20, 21, 22, 25, 26, 27, 28, 31, 32), with the same conditions described for the cell lines.
In the first experiments, due to the low cell numbers, related to the set up phase of the purification procedure, the binding of only some clones was evaluated. In general, 3 assays have been performed for each sample. […] It is interesting to note that, in the experiments on fresh cells, binding increases are much higher than in those performed with the cultured cell lines.

Substance | binding of phage clone to primary hepatic metastasis cells (patient P#27) | binding of phage clone to primary hepatic metastasis cells (patient P#28) | binding of phage clone to primary hepatic metastasis cells, summary over samples
MRYALRS (listed as Homo sapiens) [SEQ ID NO. 2] | negative | negative | 
LRPGLRS (listed as Homo sapiens) [SEQ ID NO. 3] |  |  | worked on all the samples
GVYSLRS (listed as Homo sapiens) [SEQ ID NO. 7] |  |  | worked on all the samples
GIYRLRS ((6)..(6) May be fused with GST; listed as Homo sapiens) [SEQ ID NO. 6] |  |  | worked on all the samples
ARPGLRS (listed as Homo sapiens) [SEQ ID NO. 1] |  |  | worked on all the samples
